Data reported in paper PMC11823609, “Advancements in the fight against globally distributed OXA-48 carbapenemase: evaluating the new generation of carbapenemase inhibitors” (Antimicrobial Agents and Chemotherapy, 2025).
In brackets after ≈: the same amount, converted by molar mass.

Key:
[1] = tested on: K. pneumoniae strain 238 (MLST 15, ESBL); assay: microbe, parasite or virus in culture; type: cell-based; settings: Klebsiella pneumoniae
Procedure: (§1) The efficacy of these new BLIs was also evaluated against 18 genetically diverse WGS-characterized collection of OXA-48-positive Enterobacterales recovered as part of the Carbapenem-resistant Enterobacterales Genome Database Project (https://genomes.cnag.cat/incredble) listed in Table S2 ([13]). Combinations of clinical isolates (five pairs of Klebsiella pneumoniae, two pairs of Enterobacter cloacae, and two pairs of E. coli) were chosen for analysis: (i) nine strains carrying ESBLs; and (ii) nine strains (genetically closer available strains) without ESBLs.
(§2) The MICs of each of the individual compounds (antibiotics or inhibitors) were also determined. The MICs were determined for the E. coli isogenic expressing OXA-48 (and both OXA-48 and CTX-M-14) to assess their activity against the carbapenemase; MICs were also determined for the 18 Enterobacterales clinical isolates in order to evaluate the new inhibitors against also their resistance concomitant mechanisms. The MICs were determined in triplicate experiments, and the EUCAST 13.0 clinical breakpoints were followed (http://www.eucast.org/clinical_breakpoints).
(§3) For comparative evaluation of the activity of each inhibitor alone against the carbapenemase OXA-48, all inhibitors (at 4 mg/L) were tested in the presence of a carbapenem (ertapenem, adequate substrate) and a cephalosporin (ceftazidime, poor substrate) as reporter substrates. This prevented any possible masking effect produced by the different partner antibiotics. These assays were also performed with isogenic transformants and clinical isolates.

[2] = tested on: K. pneumoniae strain 23 (MLST 392, ESBL); assay: microbe, parasite or virus in culture; type: cell-based; settings: Klebsiella pneumoniae
Procedure: as §1, §2, §3

[3] = tested on: E. cloacae strain 231 (MLST 171, No ESBL); assay: microbe, parasite or virus in culture; type: cell-based; settings: Enterobacter cloacae; E. cloacae 231; β-lactamase inhibitor alone; read-out: MIC
Procedure: as §1, §2, §3

[4] = tested on: K. pneumoniae strain 170 (MLST 307, No ESBL); assay: microbe, parasite or virus in culture; type: cell-based; settings: Klebsiella pneumoniae; K. pneumoniae 170; β-lactamase inhibitor alone; read-out: MIC
Procedure: as §1, §2, §3

[5] = tested on: K. pneumoniae strain 71 (MLST 15, No ESBL); assay: microbe, parasite or virus in culture; type: cell-based; settings: Klebsiella pneumoniae; K. pneumoniae 71; β-lactamase inhibitor alone; read-out: MIC
Procedure: as §1, §2, §3

[6] = tested on: K. pneumoniae strain 19 (MLST 11, ESBL); assay: microbe, parasite or virus in culture; type: cell-based; settings: Klebsiella pneumoniae
Procedure: as §1, §2, §3

[7] = tested on: E. coli strain 224 (MLST 127, No ESBL); assay: microbe, parasite or virus in culture; type: cell-based; settings: Escherichia coli; E. coli 224; β-lactamase inhibitor alone; read-out: MIC
Procedure: as §1, §2, §3

[8] = tested on: E. coli strain 177 (MLST 131, ESBL); assay: microbe, parasite or virus in culture; type: cell-based; settings: Escherichia coli
Procedure: as §1, §2, §3

[9] = tested on: E. cloacae strain 272 (MLST 78, ESBL); assay: microbe, parasite or virus in culture; type: cell-based; settings: Enterobacter cloacae
Procedure: as §1, §2, §3

[10] = tested on: E. coli strain 264 (MLST 131, No ESBL); assay: microbe, parasite or virus in culture; type: cell-based; settings: Escherichia coli; E. coli 264; β-lactamase inhibitor alone; read-out: MIC
Procedure: as §1, §2, §3

[11] = tested on: K. pneumoniae strain 237 (MLST 147, No ESBL); assay: microbe, parasite or virus in culture; type: cell-based; settings: Klebsiella pneumoniae; K. pneumoniae 237; β-lactamase inhibitor alone; read-out: MIC
Procedure: as §1, §2, §3

[12] = tested on: K. pneumoniae strain 194 (MLST 392, No ESBL); assay: microbe, parasite or virus in culture; type: cell-based; settings: Klebsiella pneumoniae; K. pneumoniae 194; β-lactamase inhibitor alone; read-out: MIC
Procedure: as §1, §2, §3

[13] = tested on: E. cloacae strain 281 (MLST 78, No ESBL); assay: microbe, parasite or virus in culture; type: cell-based; settings: Enterobacter cloacae; E. cloacae 281; β-lactamase inhibitor alone; read-out: MIC
Procedure: as §1, §2, §3

[14] = tested on: E. cloacae strain 235 (MLST 171, ESBL); assay: microbe, parasite or virus in culture; type: cell-based; settings: Enterobacter cloacae
Procedure: as §1, §2, §3

[15] = tested on: E. coli strain 103 (MLST 10, ESBL); assay: microbe, parasite or virus in culture; type: cell-based; settings: Escherichia coli
Procedure: as §1, §2, §3

[16] = tested on: K. pneumoniae strain 125 (MLST 307, ESBL); assay: microbe, parasite or virus in culture; type: cell-based; settings: Klebsiella pneumoniae
Procedure: as §1, §2, §3

[17] = tested on: K. pneumoniae strain 497 (MLST 11, No ESBL); assay: microbe, parasite or virus in culture; type: cell-based; settings: Klebsiella pneumoniae; K. pneumoniae 497; β-lactamase inhibitor alone; read-out: MIC
Procedure: as §1, §2, §3

[18] = tested on: K. pneumoniae strain 413 (MLST 147, ESBL); assay: microbe, parasite or virus in culture; type: cell-based; settings: Klebsiella pneumoniae
Procedure: as §1, §2, §3

OXA-48 = OXA-48 (Klebsiella pneumoniae, UniProt Q6XEC0); settings: ref 26 Lahiri et al.; cited from earlier work
E. coli TG1 (OXA-48) = assay: microbe, parasite or virus in culture; type: cell-based, Escherichia coli; settings: Escherichia coli
Procedure: as §2, §3

[19] = tested on: E. coli HB4 ΔompC/F (CTX-M-14); assay: microbe, parasite or virus in culture; type: cell-based, Escherichia coli; settings: Escherichia coli
Text: (§4) The E. coli HB4 strain was used to gain a more complete perspective, by evaluating the involvement in resistance of a low permeability background with the carbapenemase OXA-48, as well as coproduction of an ESBL and the carbapenemase; thus, the ESBL CTX-M-14 and OXA-48 were cloned together and separately into E. coli HB4. The characteristics of these strains and transformants are summarized in Table S1, and the cloning procedures are outlined in the supplemental methods.
as §2, §3

E. coli HB4 ΔompC/F = assay: microbe, parasite or virus in culture; type: cell-based, Escherichia coli; settings: Escherichia coli
Text: as §4, §2, §3

[20] = tested on: E. coli HB4 ΔompC/F (OXA-48); assay: microbe, parasite or virus in culture; type: cell-based, Escherichia coli; settings: Escherichia coli
Text: as §4, §2, §3

[21] = tested on: E. coli HB4 ΔompC/F (CTX-M-14 + OXA-48); assay: microbe, parasite or virus in culture; type: cell-based, Escherichia coli; settings: for MIC: Escherichia coli
Text: as §4, §2, §3

[22] = tested on: E. coli TG1 and HB4 transformants; assay: MIC summary over E. coli transformants; type: cell-based, Escherichia coli
Text: as §4, §2, §3

E. coli TG1 = assay: microbe, parasite or virus in culture; type: cell-based; settings: Escherichia coli, β-lactamase inhibitor alone
Procedure: as §2, §3

[23] = tested on: OXA-48-producing Enterobacterales clinical isolates; assay: MIC summary over clinical isolates; type: cell-based; settings: clinical isolates
Procedure: as §1, §2, §3

[24] = tested on: O=C(Cc1cccs1)N[C@@H]1C(=O)N2C(C(=O)O)=C(/C=C/c3ccc([N+](=O)[O-])cc3[N+](=O)[O-])CS[C@H]12; assay: purified protein, by the assay type; settings: other: substrate hydrolysis by OXA-48; pH 7.4; 25.0 °C
[25] = OXA-48-producing E. coli hosts, BLI 4 mg/L

Sequence of OXA-48 (Q6XEC0 23-265 limits assumed): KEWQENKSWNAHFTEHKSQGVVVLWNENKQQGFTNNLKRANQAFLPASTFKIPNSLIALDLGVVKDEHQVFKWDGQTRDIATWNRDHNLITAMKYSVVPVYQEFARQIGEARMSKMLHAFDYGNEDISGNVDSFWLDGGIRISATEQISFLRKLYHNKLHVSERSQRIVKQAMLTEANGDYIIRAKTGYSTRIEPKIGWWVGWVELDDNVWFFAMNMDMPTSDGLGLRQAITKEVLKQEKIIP

Row | Compound | MIC [1] [µg/mL] | MIC [2] [µg/mL] | MIC [3] [µg/mL] | MIC [4] [µg/mL] | MIC [5] [µg/mL] | MIC [6] [µg/mL] | MIC [7] [µg/mL] | MIC [8] [µg/mL] | MIC [9] [µg/mL] | MIC [10] [µg/mL] | MIC [11] [µg/mL] | MIC [12] [µg/mL] | MIC [13] [µg/mL] | MIC [14] [µg/mL] | MIC [15] [µg/mL] | MIC [16] [µg/mL] | MIC [17] [µg/mL] | MIC [18] [µg/mL] | MIC (E. coli TG1 (OXA-48)) [µg/mL] | MIC [19] [µg/mL] | further results
1 | NC(=O)[C@@H]1CC[C@@H]2CN1C(=O)N2OS(=O)(=O)O [Avibactam, avibactam] | 32 | 16 | 8 | 16 | 32 | ≥ 128 | 16 | 32 | 32 | 16 | 64 | 16 | 16 | 32 | 32 | 32 | ≥ 128 | 64 | 4 (≈ 15.1 µM) | 16 (≈ 60.3 µM) | t1/2 (OXA-48): 1,000 min; MIC (E. coli HB4 ΔompC/F): 8 µg/mL (≈ 30.2 µM); MIC [20]: 8 µg/mL (≈ 30.2 µM); decrease of ertapenem MIC with BLI ([21]; E. coli HB4 coproducing CTX-M-14 and OXA-48, BLI 4 mg/L): 256 fold; MIC [21]: 16 µg/mL (≈ 60.3 µM); decrease of ertapenem MIC with BLI [22, 25]: 8–256 fold; MIC (E. coli TG1): 4 µg/mL (≈ 15.1 µM)
2 | O=C(NNC(=O)[C@@H]1CC[C@@H]2CN1C(=O)N2OS(=O)(=O)O)[C@@H]1CCCNC1 [Zidebactam, zidebactam] | 0.25 | 0.5 | 0.25 | 0.5 | 0.5 | ≥ 128 | 0.25 | 0.5 | 0.5 | 0.12 | 0.5 | 0.5 | 0.25 | 2 | 8 | ≥ 128 | 32 | ≥ 128 | 0.12 (≈ 0.307 µM) | 0.5 (≈ 1.28 µM) | reduction of cefepime MICs by BLI [23]: 2–512 fold; MIC (E. coli HB4 ΔompC/F): 0.5 µg/mL (≈ 1.28 µM); MIC [20]: 0.5 µg/mL (≈ 1.28 µM); MIC [21]: 0.5 µg/mL (≈ 1.28 µM); effect of ertapenem/BLI on bacterial growth [22, 25]: totally inhibited bacterial growth; MICs of inhibitor alone (range over strains) ([22]; TG1 and HB4 E. coli): 0.12 to 2 mg/L; MIC (E. coli TG1): 0.12 µg/mL (≈ 0.307 µM)
3 | OXA-48 (Klebsiella pneumoniae) |  |  |  |  |  |  |  |  |  |  |  |  |  |  |  |  |  |  |  |  | Km [24]: 56.5 µM; kcat [24]: 171.4 s⁻¹; kcat/Km [24]: 3.05e+06 M⁻¹ s⁻¹
